How the values were obtained:
[1] = 298.15 K, Ring tensiometer
[2] = xn = mol fraction of the nth substance listed; conditions: 298.15 K, Ring tensiometer

CC#N [acetonitrile]
Conditions | surface tension liquid-gas [mN/m]
[1] | 27.76

CC#N [acetonitrile] + CC(C)O
[2]
Conditions | surface tension liquid-gas [mN/m]
x1 = 0.2001 | 21.05
x1 = 0.3621 | 21.55
x1 = 0.4885 | 22.15
x1 = 0.5398 | 22.44
x1 = 0.6001 | 22.88
x1 = 0.7 | 23.84
x1 = 0.8001 | 24.94
x1 = 0.8984 | 26.23
x1 = 0.9579 | 27.1
x1 = 0.9701 | 27.28
x1 = 0.9851 | 27.55

CC#N [acetonitrile] + O
[2]
Conditions | surface tension liquid-gas [mN/m]
x2 = 0.2032 | 29.46
x2 = 0.4087 | 30.95
x2 = 0.5149 | 31.45
x2 = 0.6041 | 31.68
x2 = 0.7459 | 32.92
x2 = 0.8145 | 33.97
x2 = 0.8773 | 37.97
x2 = 0.8977 | 39.63
x2 = 0.905 | 40.54
x2 = 0.9484 | 49.39
x2 = 0.9702 | 55.92
x2 = 0.9851 | 62.36

CC(C)O [propan-2-ol]
Conditions | surface tension liquid-gas [mN/m]
[1] | 20.95

CC(C)O [propan-2-ol] + O
[2]
Conditions | surface tension liquid-gas [mN/m]
x2 = 0.099 | 21.65
x2 = 0.2949 | 21.97
x2 = 0.5018 | 22.28
x2 = 0.5993 | 22.74
x2 = 0.7021 | 23.28
x2 = 0.8 | 24.37
x2 = 0.8502 | 25.04
x2 = 0.8991 | 26.64
x2 = 0.945 | 32.36
x2 = 0.9598 | 35.83
x2 = 0.9697 | 39.36

O [water]
Conditions | surface tension liquid-gas [mN/m]
[1] | 72.09

From the NIST ThermoML archive (doi:10.1021/je1001329)
